Structures are written as SMILES. Where only a bound is given, the exact number is not on record here.

One test concerns central benzodiazepine receptors. The test is described as follows: Central benzodiazepine receptor binding (test of Speth et al.). As to conditions: 1000 nM of the compound. The method in brief:
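Values are percent inhibition of central benzodiazepine receptor binding at 1000 nM compound (initial single-point screen at 1.0E-09, 1.0E-07 and 1.0E-05 M). Speth et al. binding test; nonspecific binding defined with excess unlabelled ligand and subtracted from total.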
Take `Cc1ccc(-c2nc3ccc(C)cn3c2CNc2nc(C)cc(Cl)n2)cc1` [Compound 147, 4-chloro-6-methyl-N-((6-methyl-2-p-tolylimidazo[1,2-a]pyridin-3-yl)methyl)pyrimidin-2-amine]: the “% Inhibition at 1000 nM for CBZD” value is reported as “++ (percentage of inhibition of central BZD site binding is greater than 80% in the presence of 1000 nM of the compound)”.

Take `Cc1ccnc(NCc2c(-c3ccc(Cl)cc3)nc3ccccn23)n1` [Compound 157, [2-(4-Chloro-phenyl)-imidazo[1,2-a]pyridin-3-ylmethyl]-(4-methyl-pyrimidin-2-yl)-amine]: the “% Inhibition at 1000 nM for CBZD” value is given as “++ (percentage of inhibition of central BZD site binding is greater than 80% in the presence of 1000 nM of the compound)”.

Regarding `Cc1cc(Cl)nc(NCc2c(-c3ccc(F)cc3)nc3ccc(Cl)cn23)n1` [Compound 162, 4-chloro-N-((6-chloro-2-(4-fluorophenyl)imidazo[1,2-a]pyridin-3-yl)methyl)-6-methylpyrimidin-2-amine], the “% Inhibition at 1000 nM for CBZD” value is on record as “++ (percentage of inhibition of central BZD site binding is greater than 80% in the presence of 1000 nM of the compound)”. On the same count and under the same terms, as for `Cc1ccc(-c2nc3ccc(C)cn3c2CSc2nc(C)cc(C)n2)cc1` [Compound 181, 3-((4,6-dimethylpyrimidin-2-ylthio)methyl)-6-methyl-2-p-tolylH-imidazo[1,2-a]pyridine], the entry is “++ (percentage of inhibition of central BZD site binding is greater than 80% in the presence of 1000 nM of the compound)”; as for `CNCCOc1nccc(NCc2c(-c3ccc(Cl)cc3)nc3ccccn23)n1` [Compound 185, N-((2-(4-chlorophenyl)imidazo[1,2-a]pyridin-3-yl)methyl)-2-(2-(methylamino)ethoxy)pyrimidin-4-amine], “++ (percentage of inhibition of central BZD site binding is greater than 80% in the presence of 1000 nM of the compound)”. Still for that read-out and setting: to `Clc1ccc(-c2nc3ccccn3c2Cc2cncc(OC3CCNC3)n2)cc1` (stereo not shown) [Compound 186, 2-(4-chlorophenyl)-3-((6-(pyrrolidin-3-yloxy)pyrazin-2-yl)methyl)imidazo[1,2-a]pyridine] belongs “++ (percentage of inhibition of central BZD site binding is greater than 80% in the presence of 1000 nM of the compound)”; to `CN(C)CCNc1cncc(Cc2c(-c3ccc(Cl)cc3)nc3ccccn23)n1` [Compound 190, N1-(6-((2-(4-chlorophenyl)imidazo[1,2-a]pyridin-3-yl)methyl)pyrazin-2-yl)-N2,N2-dimethylethane-1,2-diamine], “++ (percentage of inhibition of central BZD site binding is greater than 80% in the presence of 1000 nM of the compound)”; to `CC(C)(C)OC(=O)N1CCCC1c1ccnc(NCc2c(-c3ccc(F)cc3)nc3ccc(Cl)cn23)n1` (stereo not shown) [Compound 194, Tert-butyl 2-(2-((6-chloro-2-(4-fluorophenyl)imidazo[1,2-a]pyridin-3-yl)methylamino)pyrimidin-4-yl)pyrrolidine-1-carboxylate], “+ (percentage of inhibition of central BZD site binding is greater than 50% but less than 80% in the presence of 1000 nM of the compound)”. As to `Cn1ccnc1Cc1c(-c2ccc(F)cc2)nc2ccc(F)cn12` [Compound 199, 6-fluoro-2-(4-fluorophenyl)-3-((1-methyl-1H-imidazol-2-yl)methyl)imidazo[1,2-a]pyridine], the “% Inhibition at 1000 nM for CBZD” value is given as “++ (percentage of inhibition of central BZD site binding is greater than 80% in the presence of 1000 nM of the compound)”.

On to `Cc1nc(Cc2c(-c3ccc(F)cc3)nc3ccc(F)cn23)no1` [Compound 201, 3-((6-fluoro-2-(4-fluoropnyl)imidazo[1,2-a]pyridin-3-yl)methyl)-5-methyl-1,2,4-oxadiazole], for which the “% Inhibition at 1000 nM for CBZD” value is reported as “++ (percentage of inhibition of central BZD site binding is greater than 80% in the presence of 1000 nM of the compound)”. As for `Cc1nc(Cc2c(-c3ccc(Cl)cc3)nc3ccccn23)no1` [Compound 202, 3-((2-(4-chlorophenyl)imidazo[1,2-a]pyridin-3-yl)methyl)-5-methyl-1,2,4-oxadiazole], the “% Inhibition at 1000 nM for CBZD” value was “++ (percentage of inhibition of central BZD site binding is greater than 80% in the presence of 1000 nM of the compound)”.

Regarding `Cc1ccc2nc(-c3ccc(Cl)cc3)c(Cc3nnc(C)o3)n2c1` [Compound 203, 2-((2-(4-chlorophenyl)-6-methylimidazo[1,2-a]pyridin-3-yl)methyl)-5-methyl-1,3,4-oxadiazole], the “% Inhibition at 1000 nM for CBZD” value is on record as “++ (percentage of inhibition of central BZD site binding is greater than 80% in the presence of 1000 nM of the compound)”.

On to `Fc1ccc(-c2nc3ccc(F)cn3c2Cc2ncn[nH]2)cc1` [Compound 210, 3-((1H-1,2,4-triazol-5-yl)methyl)-6-fluoro-2-(4-fluorophenyl)imidazo[1,2-a]pyridine], for which the “% Inhibition at 1000 nM for CBZD” value is “++ (percentage of inhibition of central BZD site binding is greater than 80% in the presence of 1000 nM of the compound)”.

For `Clc1ccc(-c2nc3ccc(Cl)cn3c2Cc2cn[nH]n2)cc1` [Compound 227, 3-((2H-1,2,3-triazol-4-yl)methyl)-6-chloro-2-(4-chlorophenyl)imidazo[1,2-a]pyridine], the “% Inhibition at 1000 nM for CBZD” value is on record as “++ (percentage of inhibition of central BZD site binding is greater than 80% in the presence of 1000 nM of the compound)”.

As to `CC(C)c1nnc(Cc2c(-c3ccc(Cl)cc3)nc3ccccn23)[nH]1` [Compound 231, 2-(4-chlorophenyl)-3-((5-isopropyl-4H-1,2,4-triazol-3-yl)methyl)imidazo[1,2-a]pyridine], the “% Inhibition at 1000 nM for CBZD” value is listed as “++ (percentage of inhibition of central BZD site binding is greater than 80% in the presence of 1000 nM of the compound)”.

For `CC(C)c1nnc(Cc2c(-c3ccccc3)nc3ccc(Cl)cn23)[nH]1` [Compound 232, 6-chloro-3-((5-isopropyl-4H-1,2,4-triazol-3-yl)methyl)-2-phenylimidazo[1,2-a]pyridine], the “% Inhibition at 1000 nM for CBZD” value is “++ (percentage of inhibition of central BZD site binding is greater than 80% in the presence of 1000 nM of the compound)”. As for `CNc1nnc(Cc2c(-c3ccc(Cl)cc3)nc3ccccn23)s1` [Compound 235, 5-((2-(4-chlorophenyl)imidazo[1,2-a]pyridin-3-yl)methyl)-N-methyl-1,3,4-thiadiazol-2-amine], the “% Inhibition at 1000 nM for CBZD” value is “+ (percentage of inhibition of central BZD site binding is greater than 50% but less than 80% in the presence of 1000 nM of the compound)”. The same measure, in the same setting: to `O=c1[nH]c(Cc2c(-c3ccc(F)cc3)nc3ccc(F)cn23)no1` [Compound 236, 3-((6-fluoro-2-(4-fluorophenyl)imidazo[1,2-a]pyridin-3-yl)methyl)-1,2,4-oxadiazol-5(4H)-one] belongs “++ (percentage of inhibition of central BZD site binding is greater than 80% in the presence of 1000 nM of the compound)”; to `O=C1C=C(N2CCCCC2)CN1Cc1c(-c2ccc(Cl)cc2)nc2ccccn12` [Compound 239, 1-((2-(4-chlorophenyl)imidazo[1,2-a]pyridin-3-yl)methyl)-4-(piperidin-1-yl)-1H-pyrrol-2(5H)-one], “++ (percentage of inhibition of central BZD site binding is greater than 80% in the presence of 1000 nM of the compound)”; to `O=C1C=C(N2CCC(O)CC2)CN1Cc1c(-c2ccc(Cl)cc2)nc2ccccn12` [Compound 241, 1-((2-(4-chlorophenyl)imidazo[1,2-a]pyridin-3-yl)methyl)-4-(4-hydroxypiperidin-1-yl)-1H-pyrrol-2(5H)-one], “++ (percentage of inhibition of central BZD site binding is greater than 80% in the presence of 1000 nM of the compound)”.

Take `CN1CCN(c2cc(Cc3c(-c4ccc(Cl)cc4)nc4ccccn34)ncn2)CC1` [Compound 244, 2-(4-chlorophenyl)-3-((6-(4-methylpiperazin-1-yl)pyrimidin-4-yl)methyl)imidazo[1,2-a]pyridine]: the “% Inhibition at 1000 nM for CBZD” value is “++ (percentage of inhibition of central BZD site binding is greater than 80% in the presence of 1000 nM of the compound)”.

In another test the target is T1, α1 subtype containing GABA-A receptors (Homo sapiens, UniProt P14867+P18507).
T1 construct: expressed in transfected cells; host or cells: Xenopus laevis oocytes, cRNA injected
T1 sequence (P14867 28-456): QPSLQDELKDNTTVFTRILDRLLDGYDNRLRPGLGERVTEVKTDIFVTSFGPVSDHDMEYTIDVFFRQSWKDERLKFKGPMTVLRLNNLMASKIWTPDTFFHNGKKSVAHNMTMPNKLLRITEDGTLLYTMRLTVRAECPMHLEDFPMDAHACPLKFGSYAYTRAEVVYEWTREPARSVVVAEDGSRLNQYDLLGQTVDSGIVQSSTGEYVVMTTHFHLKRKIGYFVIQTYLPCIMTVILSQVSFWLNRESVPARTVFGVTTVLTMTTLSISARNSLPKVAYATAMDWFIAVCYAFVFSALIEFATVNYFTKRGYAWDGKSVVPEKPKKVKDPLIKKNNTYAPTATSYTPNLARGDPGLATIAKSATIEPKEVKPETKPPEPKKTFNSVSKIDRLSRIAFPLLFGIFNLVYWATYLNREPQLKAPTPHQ
T1 sequence (P28472 26-473 partner): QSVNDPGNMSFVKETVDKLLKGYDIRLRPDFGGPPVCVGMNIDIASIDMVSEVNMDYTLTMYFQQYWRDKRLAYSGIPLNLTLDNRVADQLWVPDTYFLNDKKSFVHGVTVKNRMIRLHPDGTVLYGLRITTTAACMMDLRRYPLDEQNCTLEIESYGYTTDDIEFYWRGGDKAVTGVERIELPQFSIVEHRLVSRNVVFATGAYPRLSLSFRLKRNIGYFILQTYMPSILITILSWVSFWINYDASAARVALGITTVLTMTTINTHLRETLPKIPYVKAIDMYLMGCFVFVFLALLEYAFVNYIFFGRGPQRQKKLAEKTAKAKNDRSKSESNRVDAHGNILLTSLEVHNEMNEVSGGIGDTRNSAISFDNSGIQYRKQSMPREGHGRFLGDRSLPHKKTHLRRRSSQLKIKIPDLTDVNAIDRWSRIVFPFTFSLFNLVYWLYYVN
T1 sequence (P18507 40-475): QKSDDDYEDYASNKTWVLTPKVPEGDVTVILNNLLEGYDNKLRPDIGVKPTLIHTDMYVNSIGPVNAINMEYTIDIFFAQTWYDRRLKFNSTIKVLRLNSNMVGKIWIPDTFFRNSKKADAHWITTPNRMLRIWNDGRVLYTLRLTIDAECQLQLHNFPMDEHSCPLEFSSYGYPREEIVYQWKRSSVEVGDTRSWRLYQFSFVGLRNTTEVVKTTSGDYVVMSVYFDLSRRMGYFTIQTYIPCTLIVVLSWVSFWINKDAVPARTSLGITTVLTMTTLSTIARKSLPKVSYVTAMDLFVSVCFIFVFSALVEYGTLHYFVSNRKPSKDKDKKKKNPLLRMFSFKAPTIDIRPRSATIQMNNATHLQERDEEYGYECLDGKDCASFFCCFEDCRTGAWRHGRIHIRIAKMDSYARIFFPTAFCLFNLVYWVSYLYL
Description: Two-electrode voltage clamp electrophysiology in Xenopus oocytes, potentiation of GABA EC20 response, α1. The test is classed as cell-based. The following applies: 100 nM compound, read-out: Percentage of potentiation alpha1. The method, then:
Electrophysiology protocol: Oocytes were prepared from adult female Xenopus laevis frogs. cRNA encoding human α1, α2, α3, α5, β3 and γ2L GABAA receptor subunits was injected into the cytoplasm of stage 5 or 6 oocytes using the Robocyte Robot (Multi Channel Systems, Reutlingen, Germany). Two-electrode voltage clamp recordings were made in 96-well plates using the Robocyte Robot. Oocytes were impaled using recording heads with two glass electrodes containing 1.5 M potassium acetate and 0.5 M KCl and held at a membrane potential of −80 mV. Oocytes were continually perfused with a ND96 solution (96 mM NaCl, 2 mM KCl, 0.1 mM CaCl2, and 5 mM HEPES, pH 7.5) using a Gilson 222 XL Liquid Handler and Gilson Minipuls 3 Peristaltic Pump (Gilson Medical Electronics, Middleton, Wis., USA). The protocol consisted of three 20-s applications of GABA that gave a 20% of the maximum response (EC20: 60 μM) to allow for headroom to determine a baseline GABA response. To assess the potentiation, oocytes were first exposed to a single 1 μM chlordiazepoxide (CDP) as a potentiation standard. Oocytes with insufficient expression levels (currents below threshold) or insufficient γ2L subunit incorporation (judged by rapid desensitization upon GABA application, or by insufficient potentiation by CDP) were not included in analysis. Following this control application, a given oocyte was exposed to test compounds at 100 nM concentrations. Only one concentration of one compound was tested per oocyte. […] One skilled in the art will recognize that subtypes contribute to the effects of GABA-A modulators. Such that compounds favoring different subtypes can have different therapeutic effects. The magnitude of modulation, for example, partial modulators can influence the effects in vivo. “++” indicates a greater modulation that “+” so that at any given subtype “++” inducates a greater amount of modulation for that subtype. In some embodiments, modulation favoring alpha 1 relative to alpha2 and/or alpha 3 can have sedative hypnotic effects. In other embodiments, compounds with reduced selectivity of alpha 1 can express anxiolytic effects with less sedation. Compounds with selectivity for alpha 5 can have memory/cognition enhancing effects.
In general terms: In two-electrode clamp one electrode senses voltage and the other passes current.
As to `Cc1ccc(-c2nc3ccc(C)cn3c2CNc2nc(C)cc(Cl)n2)cc1` [Compound 147, 4-chloro-6-methyl-N-((6-methyl-2-p-tolylimidazo[1,2-a]pyridin-3-yl)methyl)pyrimidin-2-amine], the activation at 0.1 µM is no less than 50%. Same read-out and setting: to `Cc1ccnc(NCc2c(-c3ccc(Cl)cc3)nc3ccccn23)n1` [Compound 157, [2-(4-Chloro-phenyl)-imidazo[1,2-a]pyridin-3-ylmethyl]-(4-methyl-pyrimidin-2-yl)-amine] belongs 10 to 50%. As for `Cc1cc(Cl)nc(NCc2c(-c3ccc(F)cc3)nc3ccc(Cl)cn23)n1` [Compound 162, 4-chloro-N-((6-chloro-2-(4-fluorophenyl)imidazo[1,2-a]pyridin-3-yl)methyl)-6-methylpyrimidin-2-amine], the activation at 0.1 µM lay within 10 to 50%. With `Clc1ccc(-c2nc3ccc(Cl)cn3c2Cc2cn[nH]n2)cc1` [Compound 227, 3-((2H-1,2,3-triazol-4-yl)methyl)-6-chloro-2-(4-chlorophenyl)imidazo[1,2-a]pyridine], the activation at 0.1 µM is no less than 50%.

The record behind these values is patent US8497278B2, “Imidazo[1,2-a]pyridine compounds” (priority 2008, dated 2013).
